T1: ADAM 12-S (Homo sapiens, UniProt O43184)
T1 construct: The full-length human ADAM 12-S gene was cloned into plasmid (p1151); made in house; host or cells: Cos-7 cells (ATCC, CRL 1651)
T1 sequence (O43184 208-738 isoform O43184-2 limits assumed): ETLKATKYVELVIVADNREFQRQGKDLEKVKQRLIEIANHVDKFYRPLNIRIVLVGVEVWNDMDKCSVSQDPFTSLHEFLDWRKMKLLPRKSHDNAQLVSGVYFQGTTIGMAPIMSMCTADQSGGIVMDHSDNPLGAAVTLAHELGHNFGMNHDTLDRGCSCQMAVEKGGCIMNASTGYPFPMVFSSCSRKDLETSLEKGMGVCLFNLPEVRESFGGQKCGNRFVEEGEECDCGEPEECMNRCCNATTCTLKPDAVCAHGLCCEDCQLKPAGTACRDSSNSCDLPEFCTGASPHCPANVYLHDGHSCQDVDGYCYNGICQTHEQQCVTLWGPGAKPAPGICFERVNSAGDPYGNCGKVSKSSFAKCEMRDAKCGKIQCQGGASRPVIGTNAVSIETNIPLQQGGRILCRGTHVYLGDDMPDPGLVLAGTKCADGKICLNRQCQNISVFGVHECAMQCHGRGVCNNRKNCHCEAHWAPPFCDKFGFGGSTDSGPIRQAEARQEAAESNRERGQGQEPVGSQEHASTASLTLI
T1 sequence (O43184 29-207 partner limits assumed): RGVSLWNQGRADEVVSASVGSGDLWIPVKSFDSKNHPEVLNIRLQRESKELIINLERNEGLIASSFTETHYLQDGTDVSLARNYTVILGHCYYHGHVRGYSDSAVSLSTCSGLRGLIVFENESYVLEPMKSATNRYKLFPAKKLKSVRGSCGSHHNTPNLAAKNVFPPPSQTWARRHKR

B1: TIMP-4: endogenous inhibitor (protein, UniProt Q99727 30-224, looked up)
Metalloproteinase inhibitor 4: CSCAPAHPQQHICHSALVIRAKISSEKVVPASADPADTEKMLRYEIKQIKMFKGFEKVKDVQYIYTPFDSSLCGVKLEANSQKQYLLTGQVLSDGKVFIHLCNYIEPWEDLSLVQRESLNHHYHLNCGCQITTCYTVPCTISAPNECLWTDWLLERKLYGYQAQHYVCMKHVDGTCSWYRGHLPLRKEFVDIVQP
B2: TIMP-3: endogenous inhibitor (protein, UniProt P35625 24-211, looked up)
Metalloproteinase inhibitor 3: CTCSPSHPQDAFCNSDIVIRAKVVGKKLVKEGPFGTLVYTIKQMKMYRGFTKMPHVQYIHTEASESLCGLKLEVNKYQYLLTGRVYDGKMYTGLCNFVERWDQLTLSQRKGLNYRYHLGCNCKIKSCYYLPCFVTSKNECLWTDMLSNFGYPGYQSKHYACIRQKGGYCSWYRGWAPPDKSIINATDP

Target: T1, ADAM 12-S
Experiment: Inhibition of gelatin degradation by ADAM 12 (SDS-PAGE, Coomassie staining)
Assay type: biochemical
Settings: ADAM 12 160 nM, 37° C., 18 h; for inhibition of gelatin degradation by ADAM 12: 30 μg gelatin
Method: The full-length human ADAM 12-S gene was cloned into plasmid (p1151) and transfection of Cos-7 cells (ATCC, CRL 1651) was conducted as previously described (5). Expressed recombinant ADAM 12-S secreted into the conditioned medium, was purified as previously described with minor modifications. Briefly, conditioned media from transfected Cos-7 cells was subjected to successive steps of SP Sepharose and ConA Sepharose chromatography as described (6). ADAM 12-S containing fractions from the ConA Sepharose column were pooled and after buffer exchange applied to a Vivapure H Mini Q column (VivaScience, Carlsbad, Calif.) pre-equilibrated with buffer A containing 0.05% CHAPS. Pure ADAM 12-S was detected in the flow-through fraction as determined by SDS-PAGE and immunoblot analysis.
Gelatin, Type IV collagen, fibronectin and casein-degrading activity of ADAM 12-S was measured as previously described (14). ADAM 12-S (1 μM) was mixed with non-reducing sample buffer and separated on a 10% polyacrylamide gel containing either 0.1% gelatin, 0.1% Type IV collagen or 0.02% fibronectin and a 12% polyacrylamide gel containing 0.1% casein. After electrophoresis, the gel was washed with 2.5% Triton X-100 for 30 min. Substrate digestion was conducted by incubating the gel in 50 mM Tris, pH 7.6, containing 5 mM CaCl2, 1 μM ZnCl2 and 0.02% NaN3 at 37° C. for 18 h. Gels were stained with 0.1% Coomassie and bands of enzyme activity were detected as zones of clearance on a background of uniform blue staining. […] For inhibition assays, ADAM 12 (160 nM) was incubated with 30 μg gelatin in assay buffer (50 mM Tris, pH 7.5) in the presence or absence of various inhibitors 5 mM 1, 10-phenanthroline, 5 mM EDTA, 1 mM Marimastat or two different concentrations (100 and 500 nM) of either TIMP-1, TIMP-2, TIMP-3 or TIMP-4 in a final volume of 30 μl at 37° C. for 18 h. Reactions were stopped with the addition of non-reducing sample buffer and the samples resolved by SDS-PAGE analysis followed by Coomassie staining.

[1] = inhibitor 100 and 500 nM (even at concentrations 5-fold higher than the enzyme)

Row | Molecule | inhibition of gelatin degradation by ADAM 12 (inhibitor 5 mM) | inhibition of the gelatinase activity of ADAM 12 [1] | further results
1 | c1cnc2c(c1)ccc1cccnc12 [1, 10-phenanthroline] | inhibited |  | 
2 | O=C(O)CN(CCN(CC(=O)O)CC(=O)O)CC(=O)O [EDTA] | inhibited |  | 
3 | CNC(=O)[C@@H](NC(=O)[C@H](CC(C)C)[C@H](O)C(=O)NO)C(C)(C)C [Marimastat] |  |  | inhibition of gelatin degradation by ADAM 12 (inhibitor 1 mM): partial inhibition
4 | TIMP-1: endogenous inhibitor |  | did not inhibit | 
5 | B1 |  | did not inhibit | 
6 | B2 |  |  | inhibition of the gelatinase activity of ADAM 12 (inhibitor 500 nM): effective inhibitor
